One assay deals with xylS2/Pm. The experiment in a line: β-galactosidase induction, simple circuit xylS2/Pm::lacZ in chromosome (E. coli CC118FH26). The class given is cell-based. Conditions: E. coli CC118FH26, 5 hours at 30° C. The text has this:
(§1) This example illustrates how the effector molecules NahR and XylS2 can synergistically amplify gene expression when integrated properly into a cascade genetic circuit.

Another assay concerns nahR/Psal. The class given is cell-based, E. coli. The settings on record: for Induction ratio of β-galactosidase activity: nahR/Psal, E. coli CC118RSL9, 5 hours at 30° C.
From the text: as §1

Assay [1] relates to nahR/Psal::xylS2/Pm. Conditions: CC4S2PMT97, salicylate 2 mM, 30° C., 5 hours.
Protocol: The pool of bacteria growing on streptomycin 25 mg/l and rifampicin 50 mg/l was used as recipient in a mating with donor strain E. coli S17-1(λpir) (pCNB4-S2). To select transconjugants, the mating product was plated onto LB plates with rifampicin, streptomycin and kanamycin (25 mg/l). […] Cultures from colonies of the transconjugant were grown overnight in LB medium (yeast extract 5 g/l, tryptone 10 g/l, 5 g/l NaCl) at 37° C. by shaking. Cultures were diluted 1:100 in fresh media without antibiotic selection and incubated for 2 hours at 37° C.
Assay [2] has as its system nahR4/Psal::xylS/Pm::trp'::'lacZ.
In assay [3] the test system is xylS2/Pm::nahR and Psal::trp'::'lacZ. Conditions: E. coli 2NRSL7, salicylate 2 mM.
In assay [4] the test system is nahR/Psal::xylS2/Pm::trp'::'lacZ. Conditions: Salicylate 2 mM, 30° C., 5 hours, depending on the transconjugant.
Assay [5] has as its system xylS2/Pm::lacZ (pCNB2-lacZ). The settings on record: CC118λpir pCNB2-lacZ, salicylate 2 mM, 5 hours.
The test system of assay [6] is nahR/Psal::lacZ (pCNB4-lacZ). Conditions: CC118λpir pCNB4-lacZ, salicylate 2 mM, 5 hours.
For another assay, the system named is Pm::lacZ (pTSPm-lacZ). Conditions: CC118λpir pTSPm-lacZ, salicylate 2 mM, 30° C., 5 hours.
Assay [7] concerns nahR/Psal::xylS2/Pm. The class given is cell-based, E. coli.
From the text: as §1

Where two headings read alike, the source gives them in different places.

As to `COc1ccc(O)c(C(=O)O)c1` [5-Metoxi-salicylate], the “Induction ratio of β-galactosidase activity” value with xylS2/Pm is listed as 46; in the assay on nahR/Psal it was 3.
For `O=C(O)c1ccccc1O` [Salicylate], the β-gal activity is recorded as 39143 Miller Units in the assay with nahR/Psal::xylS2/Pm [1]; 67002 Miller Units in assay [5] (30° C.); 17952 Miller Units in [6] (30° C.); 1358 Miller Units with Pm::lacZ (pTSPm-lacZ); 30383 Miller Units in the assay with nahR/Psal::xylS2/Pm [7] (CC4S2PMT32, salicylate 2 mM, 30° C., 5 hours). Besides, the “XylS accumulation (western blot)” value in assay [2] (P. putida cascade cultures induced with salicylate) was “Increased accumulation of XylS”. Also, the “β-galactosidase produced in the presence of salicylate relative to benzoate” value in assay [2] (P. putida cascade transconjugants, 2 mM) is reported as “about 4 fold”. Moreover, the “capacity of the reverse-coupled system (induction)” value in assay [3] worked out at 24 fold. This compound also gave a gene expression capacity in [4] of 150 to 400 times. In addition, the “β-galactosidase production when induced” value in assay [4] is 25,000-50,000 MU. Also, the “% β-gal/total proteins” value in assay [5] (SDS-PAGE densitometry) is 13%; in assay [6] (SDS-PAGE densitometry) it was 3.9%. Further, the “Induction ratio of β-galactosidase activity” value with xylS2/Pm is on record as 13; in the assay with nahR/Psal, 24. The “β-galactosidase production, share of total protein” value in the assay with nahR/Psal (the simple system, SDS-PAGE and densitometry) is given as “less than 0.6%”. Besides, the “induction ratio as part of maximal activity” value in the assay with nahR/Psal::xylS2/Pm [7] (0.5 mM of salicylate) came to 90%. For the same compound, the “time at which accumulation of β-galactosidase reached maximum value” with nahR/Psal::xylS2/Pm [7] (Salicylate 2 mM added at OD600=0.2) amounted to 5 h.
With `Cc1cccc(C(=O)O)c1` [3-Methyl-benzoate], the “Induction ratio of β-galactosidase activity” value with xylS2/Pm came out at 63; with nahR/Psal, 11.
For `Cc1cccc(C(=O)O)c1O` [3-Methyl-salicylate], the “Induction ratio of β-galactosidase activity” value in the assay on xylS2/Pm came out at 46; in the assay with nahR/Psal, 17.
Consider `O=C(O)c1ccc(Cl)cc1O` [4-Chloro-salicylate], for which the “Induction ratio of β-galactosidase activity” value was determined as 1 in the assay on xylS2/Pm and 33 in the assay on nahR/Psal.
For `O=C(O)c1cc(Cl)ccc1O` [5-Chloro-salicylate], the “Induction ratio of β-galactosidase activity” value with xylS2/Pm is reported as 3; in the assay on nahR/Psal it was 32.
Consider `Cc1ccc(O)c(C(=O)O)c1` [5-Methyl-salicylate], for which the figures for the “Induction ratio of β-galactosidase activity” value in the assay on xylS2/Pm and in the assay with nahR/Psal were 19 and 30, respectively.
Regarding `O=C(O)c1cc(Cl)cc(Cl)c1O` [3,5-Dichloro-salicylate], the “Induction ratio of β-galactosidase activity” value is listed as 1 in the assay on xylS2/Pm and 18 with nahR/Psal.
As for `CC(=O)Oc1ccccc1C(=O)O` [2-Acetyl salicylate], the figures for the “Induction ratio of β-galactosidase activity” value with xylS2/Pm and in the assay on nahR/Psal were 10 and 40, respectively.
Taken in the same sequence, the figures for `COc1ccccc1C(=O)O` [2-Metoxi-benzoate] were 10 and 33.
As for `Cc1ccc(C(=O)O)c(O)c1` [4-Methyl-salicylate], the “Induction ratio of β-galactosidase activity” value with xylS2/Pm was 7; in the assay on nahR/Psal, 21.
Turning to `Nc1ccccc1C(=O)O` [Antranilate], the “Induction ratio of β-galactosidase activity” value in the assay with xylS2/Pm is 11; in the assay with nahR/Psal it was 22.

The values above are taken from patent US6803224B2, “Regulated expression of cloned genes using a cascade genetic circuit” (priority 2000, dated 2004).
